Source: patent US10266529B2, “Salts, co-crystals, and polymorphs of an anxiolytic compound” (Bionomics Limited, priority 2013, dated 2019)
In brackets after ≈: the same amount, converted by molar mass.

Tests used:
Type in all cases: physicochemical
[1] = Suspension equilibration experiments (thermodynamically stable polymorphic form); conditions: at least in the temperature range from 25° C. to 60° C.
Method: Suspension equilibration experiments in a variety of different solvents and solvent mixtures were carried out at various temperatures.
In addition, the use of high temperatures can help overcome kinetic barriers to polymorphic interconversion.
The experiments at 5° C. were carried out to search for solvated (and additional hydrated) forms of compound 1 since experiments at low temperatures are conducive to solvate and hydrate formation.
The amorphous material was used as the starting material for several suspension equilibration experiments (temperature=5° C., 30° C., 75° C., or 90° C.; duration=1 d, 5 d, or 7 d; solvent=THF, 96:4 acetone/H2O, 98.5/1.5 acetone/H2O, 2-PrOH, or water). Since the amorphous form is in a higher energy state than the crystalline form of the starting material compound 1, potential kinetic barriers might not poses as much of a hindrance for a transformation. The amorphous form of compound 1 was used as starting material for experiments to determine the stability range of compound 1 by equilibration at various water activity levels.
Upon completion of the suspension equilibration experiments, the recovered products were examined by Raman spectroscopy both immediately after filtration and after 30 min of drying under vacuum at room temperature. […]

[2] = Stability of amorphous material under ambient conditions (re-examination by XRPD)
Description: The amorphous material appears to be stable for at least 5 days under ambient conditions, as it was unchanged after re-examination by XRPD (data not shown).

[3] = DVS (dynamic vapor sorption) isotherm / hygroscopicity
Method: Projekt Messtechnik Sorptions Prüfsystem SPS 11-100n or Surface Measurement Systems DVS-1. The sample was placed on an aluminum or platinum holder on top of a microbalance and allowed to equilibrate for 2 h at 50% r.h. before starting one of two pre-defined humidity programs: • (1) 2 h at 50% r.h.; • (2) 50→0% r.h. […] (5%/h); 5 h at 0% r.h.; and • (4) 0→50% r.h. (5%/h); 2 h at 50% r.h.

[4] = Aqueous solubility determination (2 h equilibration in doubly distilled water, HPLC)
Method: Approximately 0.3 mL of doubly distilled water was added to 3-10 mg of the substance to be measured. The resulting suspension/solution was equilibrated in a temperature-controlled Eppendorf Thermomixer Comfort shaker for 2 h at 25° C. at a shaking rate of 500 rpm. The solid phase was recovered by filter centrifugation (0.10-μm PVDF membrane) and examined by FT-Raman spectroscopy. The pH of the corresponding solution was determined with a Metrohm 713 pH meter. The concentration of the solution was determined by HPLC (see below).
Standard solutions of the SP196-FD-P1 free drug of compound 1 and the L-malate salt of compound 1 (SP196-MLA-P4) were prepared in the concentration range of 0.2-0.05 mg/mL for the construction of a calibration curve.

SMILES	thermodynamic stability of the polymorph [1]	stability of the amorphous material (unchanged by XRPD) [2]	DVS final mass above the starting mass ([3]; after return from 95% r.h. to 50% r.h.)	hygroscopicity classification ([3]; based on mass gain at 85% r.h.)	DVS reversible mass loss ([3]; decreasing relative humidity from 50% r.h. to 0%) [wt %]	DVS mass increase ([3]; from 50% to 85% r.h.) [wt %]	DVS (total) mass increase ([3]; increasing relative humidity from 50% r.h. to 95% r.h.) [wt %]	FT-Raman spectrum of the material after the DVS measurement ([3]; solid form after DVS cycle)	FT-Raman spectrum of the solid residue after aqueous solubility determination ([4]; after 2 h equilibration at 25° C. in water)	solubility at 2 h ([4]; doubly distilled water, 25 °C, pH 7.5, water, thermodynamic from solid, after 2 h equilibration at 25° C., pH=7.5 of saturated solution) [µg/mL]
CCn1cc(C(=O)N2CCOCC2)c(=O)c2cc(NC3Cc4ccccc4C3)cnc21 [Form D, 1-ethyl-6-(indan-2-ylamino)-3-(morpholine-4-carbonyl)-1,8-naphthyridin-4-one]	thermodynamically less stable than Form C	–	–	–	–	–	–	–	–	–
CCn1cc(C(=O)N2CCOCC2)c(=O)c2cc(NC3Cc4ccccc4C3)cnc21 [Form A, 1-ethyl-6-(indan-2-ylamino)-3-(morpholine-4-carbonyl)-1,8-naphthyridin-4-one]	–	at least 5 days	–	–	–	–	–	–	–	–
CCn1cc(C(=O)N2CCOCC2)c(=O)c2cc(NC3Cc4ccccc4C3)cnc21 [Form C, 1-ethyl-6-(indan-2-ylamino)-3-(morpholine-4-carbonyl)-1,8-naphthyridin-4-one]	thermodynamically stable polymorph	–	equal to the starting mass	slightly hygroscopic (slightly hygroscopic (mass increase<2% and ≥0.2%))	~0.3	~0.2	~0.6	corresponds to the spectrum of the material before the DVS measurement	unchanged	~40 (≈ 95.6 µM)
